Source: patent publication US20120071496A1, “Aminopyrimidinamides As Pest Control Agents” (Bayer CropScience AG, priority 2009, published 2012)

test system: Spodoptera litura third instar larvae; test: Test against tobacco cutworm (Spodoptera litura) larvae; assay type: in vivo; details: active compound concentration 100 ppm; immersed sweet potato leaves; after 7 days

Row | SMILES | insecticidal activity [%]
1 | CCc1ncccc1C(=O)Nc1c(NC2CC2)ncnc1-c1ccc(C(F)(C(F)(F)F)C(F)(F)F)cc1 [1-232] | 100
2 | O=C(Nc1c(NC2CC2)ncnc1-c1ccccc1)c1cccnc1C1CC1 [1-234] | 100
3 | O=C(Nc1c(NC2CC2)ncnc1-c1ccc(F)cc1)c1cccnc1C1CC1 [1-235] | 100
4 | O=C(Nc1c(NC2CC2)ncnc1-c1ccc(Cl)cc1)c1cccnc1C1CC1 [1-236] | 100
5 | CCCc1ncccc1C(=O)Nc1c(NC2CC2)ncnc1-c1ccccc1 [1-237] | 100
6 | CCCc1ncccc1C(=O)Nc1c(NC2CC2)ncnc1-c1ccc(F)cc1 [1-238] | 100
7 | CCCc1ncccc1C(=O)Nc1c(NC2CC2)ncnc1-c1ccc(Cl)cc1 [1-239] | 100
8 | O=C(Nc1c(NC2CC2)ncnc1-c1ccc(F)cc1F)c1cccnc1C1CC1 [1-240] | 100
9 | O=C(Nc1c(NC2CC2)ncnc1-c1ccc(Cl)cc1)c1cccnc1C(F)(F)C(F)(F)F [1-241] | 100
10 | N#Cc1ccc(-c2ncnc(NC3CC3)c2NC(=O)c2cccnc2C2CC2)cc1 [1-242] | 100
11 | O=C(Nc1c(NC2CC2)ncnc1-c1ccc(OC(F)(F)F)cc1)c1cccnc1C1CC1 [1-243] | 100
12 | CCCc1ncccc1C(=O)Nc1c(NC2CC2)ncnc1-c1ccc(Cl)cc1Cl [1-244] | 100
13 | CCCc1ncccc1C(=O)Nc1c(NC2CC2)ncnc1-c1ccc(F)cc1F [1-245] | 100

test system: not listed separately; test: logP (HCOOH); assay type: physicochemical; details: HCOOH (formic acid); Table 6

Row | chromatographic logP | SMILES
14 | 2.12 | CCc1ncccc1C(=O)Nc1c(Cl)ncnc1Nc1ccc(C(F)(F)F)cc1 [5-5, N-(4-Chloro-6-{[4-(trifluoromethyl)phenyl]amino}pyrimidin-5-yl)-2-ethylnicotinamide]

same assay, conditions: Table 2

Row | SMILES | logP (HCOOH)
15 | CCc1ncccc1C(=O)Nc1c(NC(C)(C)C)ncnc1-c1ccc(C(F)(F)F)cc1 [1-137] | 2.34
16 | CCc1ncccc1C(=O)Nc1c(NC(C)(C)C)ncnc1-c1ccc(OC(F)(F)F)cc1 [1-138] | 2.32
17 | CCc1ncccc1C(=O)Nc1c(NC2CC2)ncnc1-c1ccc(F)cc1Cl [1-139] | 0.79
18 | CCc1ncccc1C(=O)Nc1c(NC2CC2)ncnc1-c1ccccc1Cl [1-140] | 1.07
19 | CCc1ncccc1C(=O)Nc1c(NC(C)(C)C)ncnc1-c1ccc(Cl)cc1Cl [1-142] | 1.89
20 | CCc1ncccc1C(=O)Nc1c(NC(C)C2CC2)ncnc1-c1ccc(F)cc1 (stereo not shown) [1-143] | 1.47
21 | CCc1ncccc1C(=O)Nc1c(NC(C)C2CC2)ncnc1-c1ccc(Cl)cc1 (stereo not shown) [1-144] | 1.62
22 | CCc1ncccc1C(=O)Nc1c(NC(C)C2CC2)ncnc1-c1ccc(C#N)cc1 (stereo not shown) [1-145] | 1.67
23 | CCc1ncccc1C(=O)Nc1c(NC(C)C2CC2)ncnc1-c1ccc(OC(F)(F)F)cc1 (stereo not shown) [1-146] | 2.18
24 | CCc1ncccc1C(=O)Nc1c(NC(C)C2(Cl)CC2)ncnc1-c1ccc(F)cc1 (stereo not shown) [1-147] | 1.95
25 | CCc1ncccc1C(=O)Nc1c(NC(C)C2(Cl)CC2)ncnc1-c1ccc(Cl)cc1Cl (stereo not shown) [1-148] | 2.67
26 | CCc1ncccc1C(=O)Nc1c(NC(C)C2(Cl)CC2)ncnc1-c1ccc(Cl)cc1 (stereo not shown) [1-149] | 2.26
27 | CCc1ncccc1C(=O)Nc1c(NC(C)C2(Cl)CC2)ncnc1-c1ccc(C#N)cc1 (stereo not shown) [1-150] | 2.08
28 | CCc1ncccc1C(=O)Nc1c(NC(C)(C)C2CC2)ncnc1-c1ccc(Cl)cc1 [1-151] | 2.22
29 | CCc1ncccc1C(=O)Nc1c(NC(C)C2CC2)ncnc1-c1ccccc1 (stereo not shown) [1-152] | 1.32
30 | COc1ncccc1C(=O)Nc1c(NC2CC2)ncnc1-c1ccc(Cl)cc1 [1-154] | 1.83
31 | COc1ncccc1C(=O)Nc1c(NC2CC2)ncnc1-c1ccc(C#N)cc1 [1-156] | 1.59
32 | COc1ncccc1C(=O)Nc1c(NC2CC2)ncnc1-c1ccc(OC(F)(F)F)cc1 [1-157] | 2.21
33 | CCOc1ncccc1C(=O)Nc1c(NC2CC2)ncnc1-c1ccc(Cl)cc1 [1-158] | 2.54
34 | CCOc1ncccc1C(=O)Nc1c(NC2CC2)ncnc1-c1ccc(F)cc1 [1-159] | 1.84
35 | CCOc1ncccc1C(=O)Nc1c(NC2CC2)ncnc1-c1ccc(C#N)cc1 [1-160] | 1.80

Row | SMILES | logP (HCOOH)
36 | CCOc1ncccc1C(=O)Nc1c(NC2CC2)ncnc1-c1ccc(OC(F)(F)F)cc1 [1-161] | 2.64
37 | CC(C)Oc1ncccc1C(=O)Nc1c(NC2CC2)ncnc1-c1ccc(F)cc1 [1-163] | 2.19
38 | CC(C)Oc1ncccc1C(=O)Nc1c(NC2CC2)ncnc1-c1ccc(C#N)cc1 [1-164] | 2.27
39 | CC(C)Oc1ncccc1C(=O)Nc1c(NC2CC2)ncnc1-c1ccc(OC(F)(F)F)cc1 [1-165] | 2.32
40 | O=C(Nc1c(NC2CC2)ncnc1-c1ccc(Cl)cc1)c1cccnc1OCC(F)(F)F [1-166] | 2.48
41 | O=C(Nc1c(NC2CC2)ncnc1-c1ccc(F)cc1)c1cccnc1OCC(F)(F)F [1-167] | 2.12
42 | N#Cc1ccc(-c2ncnc(NC3CC3)c2NC(=O)c2cccnc2OCC(F)(F)F)cc1 [1-168] | 2.11
43 | O=C(Nc1c(NC2CC2)ncnc1-c1ccc(OC(F)(F)F)cc1)c1cccnc1OCC(F)(F)F [1-169] | 2.84
44 | O=C(Nc1c(NC2CC2)ncnc1-c1ccc(F)cc1)c1cccnc1C(F)(F)F [1-170] | 1.59
45 | O=C(Nc1c(NC2CC2)ncnc1-c1ccc(Cl)cc1)c1cccnc1C(F)(F)F [1-178] | 1.76
46 | O=C(Nc1c(NC2CC2)ncnc1-c1ccc(Cl)cc1)c1cccnc1C(F)F [1-179] | 1.58
47 | CCc1ncccc1C(=O)Nc1c(NC2CC2)ncnc1-c1ccc(F)cc1C [1-180] | 1.10
48 | CCc1ncccc1C(=O)Nc1c(NC2CC2)ncnc1-c1ccc(C#N)cc1C [1-181] | 1.22
49 | CCc1ncccc1C(=O)Nc1c(NC2CC2)ncnc1-c1ccccc1C [1-182] | 0.94
50 | CCc1ncccc1C(=O)Nc1c(NC2CC2)ncnc1-c1ccc(Cl)cc1F [1-187] | 1.46
51 | CCc1ncccc1C(=O)Nc1c(NC2CC2)ncnc1-c1ccc(Cl)cc1C [1-188] | 1.40
52 | CCc1ncccc1C(=O)Nc1c(NC2CC2)ncnc1-c1ccc(C(F)(F)F)cc1C [1-189] | 1.77
53 | CCc1nc(C(F)(F)F)ccc1C(=O)Nc1c(NC2CC2)ncnc1-c1ccc(F)cc1 [1-196] | 2.43
54 | O=C(Nc1c(NC2CC2)ncnc1-c1ccc(Cl)cc1)c1cc(Cl)cnc1C1CC1 [1-197] | 2.52
55 | O=C(Nc1c(NC2CC2)ncnc1-c1ccc(F)cc1)c1cc(Cl)cnc1C1CC1 [1-198] | 2.16
56 | Cc1nc(C(F)(F)F)ccc1C(=O)Nc1c(NC2CC2)ncnc1-c1ccc(Cl)cc1 [1-199] | 2.35

Row | SMILES | logP (HCOOH)
57 | CCc1ncccc1C(=O)Nc1c(NC2CCC2)ncnc1-c1ccc(F)cc1 [1-224] | 1.36
58 | CCc1ncccc1C(=O)Nc1c(NC2CC2C)ncnc1-c1ccc(Cl)cc1F (stereo not shown) [1-230] | 1.72
59 | O=C(Nc1c(NC2CC2)ncnc1-c1ccc(F)cc1)c1cccnc1C(=O)NC1CC1 [1-262] | 1.45
60 | O=C(Nc1c(NC2CC2)ncnc1-c1ccc(Cl)cc1)c1c(F)cccc1Cl [1-263] | 2.20
61 | CCc1ncccc1C(=O)Nc1c(NC2CC2)ncnc1-c1ccc(Cn2cnc(C(F)(F)F)n2)cc1 [1-273] | 1.11
62 | CCc1ncccc1C(=O)Nc1c(NC2CC2)nc(C)nc1-c1ccccc1 [1-275] | 0.76
63 | CCc1ncccc1C(=O)Nc1c(NC2CC2)nc(C)nc1-c1ccc(F)cc1 [1-276] | 0.88
64 | CCc1ncccc1C(=O)Nc1c(NC2CC2)nc(C)nc1-c1ccc(Cl)cc1Cl [1-277] | 1.34
65 | CCc1ncccc1C(=O)Nc1c(NC2CC2)nc(C)nc1-c1ccc(F)cc1F [1-278] | 1
66 | CCc1ncccc1C(=O)Nc1c(NC2CC2)nc(C)nc1-c1ccc(OC(F)(F)F)cc1 [1-279] | 1.44
67 | O=C(Nc1c(NC2CC2)ncnc1-c1ccc(Cn2cnc(C(F)(F)F)n2)cc1)c1cccnc1C1CC1 [1-287] | 1.45
68 | CCc1ncccc1C(=O)Nc1c(NC2CC2)nc(SC)nc1-c1ccc(Cn2cnc(C(F)(F)C(F)(F)F)n2)cc1 [1-290] | 2.47
69 | CCc1ncccc1C(=O)Nc1c(NC(C)C(F)(F)F)ncnc1-c1ccc(F)cc1 (stereo not shown) [1-299] | 1.85
70 | O=C(Nc1c(NC2CC2)ncnc1-c1ccc(F)cc1)c1cccnc1C(F)C(F)(F)F (stereo not shown) [1-308] | 1.83
71 | CCc1ncccc1C(=O)Nc1c(NC2CC2)ncnc1-c1ccc(COc2ccc(C(F)(F)F)cn2)cc1 [1-309] | 1.77
72 | CCc1nccc(Cl)c1C(=O)Nc1c(NC2CC2)ncnc1-c1ccc(F)cc1 [1-315] | 2.18
73 | CCc1nccc(Cl)c1C(=O)Nc1c(NC2CC2)ncnc1-c1ccc(Cl)cc1 [1-316] | 2.54
74 | CCc1cccc(C)c1C(=O)Nc1c(NC2CC2)ncnc1-c1ccc(F)cc1 [1-320] | 2.39
75 | CCc1cccc(Cl)c1C(=O)Nc1c(NC2CC2)ncnc1-c1ccc(C#N)cc1 [1-321] | 2.37

same assay, conditions: Table 4

Row | SMILES | logP (HCOOH)
76 | CCc1ncccc1C(=O)Nc1c(Br)ncnc1NC1CC1 [3-3] | 0.84
77 | O=C(Nc1c(Cl)ncnc1NC1CC1)c1cccnc1OCC(F)(F)F [3-4] | 2.25
78 | O=C(Nc1c(Cl)ncnc1NC1CC1)c1cccnc1CC(F)(F)F [3-5] | 1.61
79 | CCc1ncccc1C(=O)Nc1c(Cl)ncnc1NC1CC1C (stereo not shown) [3-7] | 1.26
80 | CCc1ncccc1C(=O)Nc1c(CC)ncnc1NC1CC1 [3-8] | 1.74
81 | CCc1ncccc1C(=O)Nc1c(Cl)nc(C)nc1NC1CC1 [3-9] | 1.41

same assay, conditions: table after Table 9

Row | SMILES | IogP (HCOOH)
82 | O=C(Nc1c(NC2CC2)ncnc1-c1ccc(F)cc1)c1ccnn1-c1ccc(F)cc1 [9-1] | 1.70
83 | O=C(Nc1c(NC2CC2)ncnc1-c1ccc(F)cc1)c1ccnn1-c1ccc(Cl)cc1 [9-2] | 2.02
84 | O=C(Nc1c(NC2CC2)ncnc1-c1ccc(F)cc1)c1ccnn1-c1ccccc1Cl [9-3] | 1.76
85 | O=C(Nc1c(NC2CC2)ncnc1-c1ccc(Cl)cc1)c1ccnn1-c1ccccc1Cl [9-4] | 2.05
